Literature values, collected in patent US20240230688A1, “METHOD FOR DETERMINING PERSONALIZED OMEGA-3 DOSE” (SOCIETE DES PRODUITS NESTLE S.A., priority 2021, published 2024).

Tested on: pregnant women
Conditions: women who took supplement during pregnancy compared to those who did not

## CC/C=C\C/C=C\C/C=C\C/C=C\C/C=C\C/C=C\CCC(=O)O [DHA supplement, (4Z,7Z,10Z, 13Z, 16Z, 19Z)-4,7,10,13,16, 19-Docosahexaenoic acid]
  less likely to have early preterm birth: 42%
